ChEMBL document CHEMBL1142983, “Carbonic anhydrase inhibitors: inhibition of isozymes I, II, and IX with triazole-linked O-glycosides of benzene sulfonamides” (J Med Chem, 2007)

Experiments:
[1] = biological target: Carbonic anhydrase 9 (Homo sapiens, UniProt Q16790)
Description: Inhibition of catalytic domain of human recombinant isozyme CA9 by CO2 hydration method

[2] = biological target: Carbonic anhydrase 2 (Homo sapiens, UniProt P00918)
Description: Inhibition of human recombinant isozyme CA2 by CO2 hydration method

| Ki [1] [nM] | Ki [2] [nM] | Structure (SMILES) |
| --- | --- | --- |
| 107 | – | CC(=O)OC[C@H]1O[C@@H](OCc2cn(-c3ccc(S(N)(=O)=O)cc3)nn2)[C@H](OC(C)=O)[C@@H](OC(C)=O)[C@@H]1OC(C)=O |
| 9.7 | – | CC(=O)OC[C@H]1O[C@@H](OCc2cn(-c3ccc(S(N)(=O)=O)cc3)nn2)[C@H](OC(C)=O)[C@@H](OC(C)=O)[C@H]1OC(C)=O |
| 72 | 9.3 | CC(=O)O[C@H]1[C@H](OC(C)=O)C(OCc2cn(-c3ccc(S(N)(=O)=O)cc3)nn2)OC[C@H]1OC(C)=O (some centres undefined) |
| 103 | 6.9 | NS(=O)(=O)c1ccc(-n2cc(COC3OC[C@@H](O)[C@@H](O)[C@@H]3O)nn2)cc1 (some centres undefined) |
| 69 | – | NS(=O)(=O)c1ccc(-n2cc(CO[C@@H]3O[C@H](CO)[C@@H](O)[C@H]3O)nn2)cc1 |
| – | 7.8 | CC(=O)OC[C@H]1O[C@H](O[C@H]2[C@H](OC(C)=O)[C@@H](OC(C)=O)[C@H](OCc3cn(-c4ccc(S(N)(=O)=O)cc4)nn3)O[C@@H]2COC(C)=O)[C@H](OC(C)=O)[C@@H](OC(C)=O)[C@@H]1OC(C)=O |

The remaining lines, values behind:

| Structure (SMILES) | Ki [1] [nM] | Ki [2] [nM] |
| --- | --- | --- |
| NS(=O)(=O)c1ccc(-n2cc(CO[C@@H]3O[C@H](CO)[C@H](O)[C@H](O)[C@H]3O)nn2)cc1 | 120 | 53 |
| [N-]=[N+]=Nc1ccc(S(N)(=O)=O)cc1 | 105 | – |
| NS(=O)(=O)c1ccc(-n2cc(CO[C@@H]3O[C@H](CO)[C@@H](O[C@H]4O[C@H](CO)[C@@H](O)[C@H](O)[C@H]4O)[C@H](O)[C@H]3O)nn2)cc1 | 84 | – |
| NS(=O)(=O)c1ccc(-n2cc(CO[C@@H]3O[C@H](CO)[C@@H](O)[C@H](O)[C@H]3O)nn2)cc1 | 101 | – |
| NS(=O)(=O)c1ccc(-n2cc(CO[C@@H]3O[C@H](COCc4ccccc4)[C@@H](OCc4ccccc4)[C@H]3OCc3ccccc3)nn2)cc1 | – | 7.6 |
